Assay results taken from patent US20100204141A1, “USE OF BPP-B AS A THERAPEUTIC AGENT” (priority 2007, published 2010).
Square brackets hold non-standard residues; d marks the D form. Peptide text beside a SMILES is read from it. pGlu = O=C1CC[C@@H](C(=O)O)N1

What was measured:
HepG2-2.2.15 cells = assay: Cytotoxicity (dye uptake cell viability) in the HBV assay; assay type: cell-based; details: test peptide 10 micrograms per ml
HIV-1IIIB = assay: HIV-1 antiviral assay (CPE reduction, MTS) in CEM-SS cells; details: test peptide 10 micrograms per ml, 6 days post-infection
CEM-SS cells = assay: Cytotoxicity (MTS cell viability) in the HIV-1 assay; details: CEM-SS cells; test peptide 10 micrograms per ml; MTS
[1] = Cytotoxicity (dye uptake cell viability) in the HBV assay; assay type: cell-based; details: human, HepG2-2.2.15 cells (stable line containing HBV ayw genome), test peptide 10 micrograms per ml
MRSA = assay: Methicillin Resistant Staphylococcus Aureus (MRSA) assay; assay type: cell-based; details: MRSA growth; peptide 10 micrograms per ml
Procedure: (§1) The antibacterial assay was conducted using clear, U-bottom 96-well microtiter plates. Cation-adjusted Mueller-Hinton Broth (MHB) was used for testing MRSA. The peptide of the invention (0.1 ml of each—10 micrograms per ml—) was dispensed into wells in duplicate. Then the wells were inoculated with 5×10^5 CFU/mL MRSA in 0.1 ml volume. For control purposes, each plate included 4 wells containing media without bacterial inoculum and 4 wells containing medium with inoculum but without peptide. The plates were incubated for 12 h at 37° C., and read visually 18-24 hours post-incubation. Growth control of MRSA was examined first to determine adequacy of media preparations and growth conditions. Acceptable growth is defined as ≧2 mm wide button of cells at the bottom of each sample well, or obvious turbidity in the culture supernatant. Test wells were examined and scored as positive/negative for activity. A positive score for activity is based on complete inhibition of macroscopic growth of the test MRSA.

Pseudomonas aeruginosa = Pseudomonas aeruginosa assay; assay type: cell-based; details: Pseudomonas aeruginosa growth; peptide 10 micrograms per ml
Procedure: as §1, with “Pseudomonas aeruginosa.” for “MRSA.”, “Pseudomonas aeruginosa” for “MRSA”

Streptococcus pneumoniae = Streptococcus pneumoniae assay; assay type: cell-based; details: Streptococcus pneumoniae growth; peptide 10 micrograms per ml
Procedure: as §1, with “Streptococcus pneumoniae.” for “MRSA.”, “Streptococcus pneumoniae” for “MRSA”

[2] = Cytotoxicity testing in MRC-5 cells (CellTiter 96); assay type: cell-based, human; details: human, MRC-5 cells (embryonal lung fibroblasts), 6 days incubation, read-out: % Cell viability
Procedure: (§2) For cytotoxicity testing, MRC-5 cells were seeded at 2,500 cells/well in 96 well plates using growth medium. […] The following day, peptide was added and tested in duplicates. After a 6 days incubation period, cell viability was measured using CellTiter 96 Solution (Promega). Plates were incubated for additional 4 hours at 37° C.

[3] = Cytotoxicity (MTS cell viability) in the HIV-1 assay; details: human, CEM-SS cells (uninfected drug cytotoxicity wells)
MRC-5 cells = assay: Cytotoxicity testing in MRC-5 cells (CellTiter 96); assay type: cell-based, human; details: 6 days incubation
Procedure: as §2

HCMV strain AD169 = assay: HCMV plaque reduction assay in MRC-5 cells; details: HCMV in MRC-5 cells; peptide 10 micrograms per ml; 7-10 days

## Nc1ccn([C@@H]2CS[C@H](CO)O2)c(=O)n1 [3TC]
HepG2-2.2.15 cells
  % Cell viability: 95.8%

## Cc1cn([C@H]2C[C@H](N=[N+]=[N-])[C@@H](CO)O2)c(=O)[nH]c1=O [AZT]
HIV-1IIIB
  % CPE reduction in HIV-1 infected CEM-SS cells: 99%
CEM-SS cells
  % Cell viability: 97%

## CC[C@H](C)[C@H](NC(=O)[C@H](CCCCN)NC(=O)[C@@H]1CCCN1C(=O)[C@H](CCCNC(=N)N)NC(=O)[C@@H]1CCCN1C(=O)[C@@H]1CCCN1C(=O)[C@H](CC(C)C)NC(=O)CNC(=O)[C@@H]1CCC(=O)N1)C(=O)N1CCC[C@H]1C(=O)N1CCC[C@H]1C(=O)O [Bradykinin potentiator B, Pyr-Gly-Leu-Pro-Pro-Arg-Pro-Lys-Ile-Pro-Pro-OH] ([pGlu]GLPPRPKIPP-OH)
[1]
  viability at 144 h, 10 micrograms per ml: 100%
MRSA
  % inhibition: 0.0%
Pseudomonas aeruginosa
  % inhibition: 0.0%
Streptococcus pneumoniae
  % inhibition: 0.0%
[2]
  viability at 144 h: 100%
[3]
  viability at 10 micrograms per ml: 100%

## Nc1nc(O)c2ncn(COC(CO)CO)c2n1 [Ganciclovir]
MRC-5 cells
  % Cell viability: 100%
HCMV strain AD169
  % plaque reduction: 100%

## CC(C)(C)NC(=O)[C@@H]1CN(Cc2cccnc2)CCN1C[C@@H](O)C[C@@H](Cc1ccccc1)C(=O)N[C@H]1c2ccccc2C[C@H]1O [Indinavir]
HIV-1IIIB
  % CPE reduction in HIV-1 infected CEM-SS cells: 100%
CEM-SS cells
  % Cell viability: 93%
